According to patent US20260216057A1, “PHARMACEUTICAL COMPOSITIONS FOR HERPES VIRUS” (priority 2022, published 2026):

Experiments:
[1] = Example 7: Compound 1 aqueous suspension SC PK study in rat; format: in vivo, male Sprague Dawley rats; conditions: aqueous suspension (Form A), 10 mg/kg
Method: The LC-MS methodology and conditions used to analyse the helicase-primase inhibitor Compound 1 in plasma samples from the sub-cutaneous injection PK studies (Examples 7 and 10-12) are described in Table 3 and Table 4. An aqueous suspension of crystalline Compound 1 (Form A) was prepared in a 0.9% NaCl+0.5% polysorbate 80 vehicle at a concentration of 3.0 mg/mL as described in Example 2. The suspension was then dosed to male SD rats at 10 mg/kg according to the Example 2 animal dosing method.

[2] = Example 7: Compound 1 aqueous suspension SC PK study in monkey; format: in vivo, male cynomolgus monkeys; conditions: aqueous suspension (Form A), 10 mg/kg
Method: The LC-MS methodology and conditions used to analyse the helicase-primase inhibitor Compound 1 in plasma samples from the sub-cutaneous injection PK studies (Examples 7 and 10-12) are described in Table 3 and Table 4. An aqueous suspension of crystalline Compound 1 (Form A) was prepared in a 0.9% NaCl+0.5% polysorbate 80 vehicle at a concentration of 3.0 mg/mL as described in Example 3. The suspension was then dosed to male cyno monkeys at 10 mg/kg according to the Example 3 animal dosing method.

[3] = Example 7: Compound 1 aqueous suspension SC PK study in dog; format: in vivo, male non-naïve Beagle dogs; conditions: aqueous suspension (Form A), 10 mg/kg
Method: The LC-MS methodology and conditions used to analyse the helicase-primase inhibitor Compound 1 in plasma samples from the sub-cutaneous injection PK studies (Examples 7 and 10-12) are described in Table 3 and Table 4. An aqueous suspension of crystalline Compound 1 (Form A) was prepared in a 0.9% NaCl+0.5% poloxamer 188 vehicle at a concentration of 5.0 mg/mL as described in Example 4. The suspension was then dosed to male non-naïve beagle dogs at 10 mg/kg according to the Example 4 animal dosing method.

[4] = Example 10: Compound 1 (Form A) aqueous suspension SC PK study in rat; format: in vivo, male Sprague Dawley rats; conditions: 10 mg/kg
Method: An aqueous suspension of Compound 1 free form (crystalline Form A) in a 0.9% NaCl+0.5% polysorbate 80 vehicle at a concentration of 3 mg/mL was prepared as follows: • 1) Vehicle (0.9% w/w NaCl and 0.5% w/w polysorbate 80) was prepared by dissolving NaCl and polysorbate 80 in water. • 2) An appropriate amount of Compound 1 free form was weighed and added to the vehicle. • 3) The mixture was vortexed for 1 minute, stirred for 10 minutes and then sonicated for 15 minutes. • 4) The final dosing formulation was a homogenous white cloudy suspension.
Male Sprague Dawley (SD) rats with ~230-250 g body weight (ages 6-8 weeks) were used for the pharmacokinetic study. The animals had free access to food and water.
The Compound 1 suspension described above was administered via sub-cutaneous injection to each animal group (n=3) with a dosing volume of 3.33 mL/kg to achieve a 10 mg/kg dose.
At each time point, approximately 200 μL whole blood was collected in a K2EDTA tube via the jugular vein. Blood samples were put on ice and centrifuged at 2000 g for 5 min to obtain a plasma sample within 15 minutes. Plasma samples were stored at approximately −70° C. until analyzed by LC-MS.

[5] = Example 13A: Compound 1 IV PK study in monkey; format: in vivo, male non-naïve cynomolgus monkeys; conditions: 0.2 mg/kg
Method: A 0.2 mg/mL solution of Compound 1 in 10% DMSO, 10% Solutol HS15 and 80% Saline was prepared as follows: • 1) A stock solution of Compound 1 in DMSO was prepared. • 2) An equal volume of the Compound 1 stock solution and Solutol HS15 were combined and mixed. • 3) The above solution was diluted with normal saline to reach the target concentration. The final formulation was a clear solution. Male non-naïve Cyno Monkeys with were used for the monkey PK study. The animals had free access to food and water. The Compound 1 solution described above was administered via intravenous injection (1 mL/kg) to each animal (n=3) to achieve a 0.2 mg/kg dose. At each time point, approximately 0.5 mL whole blood was collected into K2EDTA tubes. Blood samples were put on to ice and centrifuged at 2000 g for 5 min to obtain plasma sample within 15 minutes. Plasma samples were stored at approximately −70° C. until analyzed by LC-MS.

[6] = Example 2: pritelivir aqueous suspension SC PK study in rat at lower dose; format: in vivo, male Sprague Dawley rats; conditions: aqueous suspension (dihydrate), 10 mg/kg
Method: The LC-MS methodology and conditions used to analyse pritelivir in plasma samples from the PK studies described in Examples 1 to 5 are provided in Table 1.
An aqueous suspension of crystalline pritelivir free base (dihydrate) in a 0.9% NaCl+0.5% polysorbate 80 vehicle at a concentration of 3.0 mg/mL was prepared as follows: • 1) Vehicle (0.9% w/w NaCl and 0.5% w/w polysorbate 80) was prepared by dissolving NaCl and polysorbate 80 in water. • 2) Appropriate amount of crystalline pritelivir free base (dihydrate) was weighed and added to the vehicle. • 3) Mixture was stirred for 15 minutes, then vortexed for 1 minute and then sonicated for 10 minutes. • 4) The final dosing formulation was a homogenous white cloudy suspension.
(§1) Male SD rats with 230-250 g body weight, ages 6-8 weeks were used for the rat PK study. The animals had free access to food and water. The prepared suspension was administered via subcutaneous injection to each animal group (n=3) with a dosing volume of 3.33 mL/kg to achieve a 10 mg/kg dose.
At each time point, approximately 200 μL whole blood was collected via the jugular vein into K2EDTA tubes. Blood samples were put on to ice and centrifuged at 2000 g for 5 min to obtain plasma sample within 15 minutes. Plasma samples were stored at approximately −70° C. until analyzed by LC-MS.

[7] = Injection site observation in pritelivir PK studies (Examples 1-4); format: in vivo, rat, monkey, dog; conditions: SC pritelivir depot formulations, Examples 1-4, 3 species
Method: Male Sprague Dawley (SD) rats with ~300 g body weight (ages 6-8 weeks) were used for the pharmacokinetic study. The animals had free access to food and water. The pritelivir suspensions described above were administered via sub-cutaneous injection to each animal group (n=3) with a dosing volume of 3.33 mL/kg to achieve 33.33 mg/kg and 166.67 mg/kg doses.
as §1
Male non-naïve Cyno Monkeys with −5 kg body weight was used for the monkey PK study. The animals had free access to food and water. The prepared suspension was administered via subcutaneous injection to each animal group (n=3) with a dosing volume of 3.33 mL/kg to achieve a 10 mg/kg dose.
Male non-naïve beagles were used for the dog PK study. The animals had free access to food and water. The prepared suspension was administered via subcutaneous injection to each animal group (n=3) with a dosing volume of 2 mL/kg to achieve a 10 mg/kg dose.

genital HSV = conditions: oral, 28 days, cited from earlier work

Row | Compound | prolonged exposure out to (length of the study) [1] | prolonged exposure out to (length of the study) [2] | prolonged exposure out to (length of the study) [3] | prolonged exposure out to [4] | variability in plasma concentrations [4] | Clearance [5] | half-life [5] | prolonged exposure out to (length of the study) [6] | adverse reactions at the injection sites [7] | rate of genital HSV shedding (genital HSV; at high doses, vs placebo) | number of days with lesions (genital HSV; men and women with genital herpes)
1 | Cc1nc(N2CCCN(c3ccc(-c4cc(F)ccc4F)cc3)C2=O)sc1S(N)(=O)=O [Compound 1, 2-(3-(2′,5′-difluoro-[1,1′-biphenyl]-4-yl)-2-oxotetrahydropyrimidin-1(2H)-yl)-4-methylthiazole-5-sulfonamide] | at least 144 hours | at least 1392 hours | at least 1392 hours | at least 58 days | low | 4 mL/h/kg | 72 h |  |  |  | 
2 | Cc1nc(N(C)C(=O)Cc2ccc(-c3ccccn3)cc2)sc1S(N)(=O)=O [pritelivir, N-methyl-N-(4-methyl-5-sulfamoyl-1,3-thiazol-2-yl)-2-[4-(pyridin-2-yl)phenyl]acetamide] |  |  |  |  |  |  |  | at least 144 hours | no adverse reactions observed | reduced the rate of genital HSV shedding | reduced the number of days with lesions
